# Legend:
# [1] = test system: 26S proteasome; experiment: Chymotrypsin-like activity of 26S proteasome, cell-based luminescence assay; conditions: C2C12 myotubes, T1AM-treated group vs control
# Procedure: Two groups of myotubes were trypsinized and then washed with a fresh differentiation medium. Among three determinants of proteasome activities (trypsin-, chemotrypsin- and caspase-like activities), the chemotrypsin-like activity is regarded as representative of the protease capacity of the proteasome. The chemotrypsin-like activity was determined according to the manufacturer's protocol using a Promega Proteasome-Glo cell-based luminescence assay kit (Promega, Madison, Wis., USA) by approximately 7,500 cells measured by a cell counter (Biorad, Hercules, Calif., USA) in 50 μl of the differentiation medium. To confirm the specificity of the analysis, a partial sample containing the same number of cells was pretreated with a proteasome inhibitor, epoxomicin, at a concentration of 10 μM for 30 minutes. The chemotrypsin-like activity was measured by the same process and the result was used as a background signal for analysis. The luminescence was measured with a GloMax 20/20 Luminometer (Promega).
# [2] = test system: FoxO3; experiment: Immunoblotting analysis of p-FoxO3 and FoxO3 in C2C12 myotubes; format: cell-based; conditions: T1AM-treated group vs control
# Procedure: (§1) C2C12 myoblasts were purchased from American Type Culture Collection (Rockville, Md., USA) and cultured in a DMEM medium containing 4,500 mg/L glucose supplemented with 10% fetal bovine serum (Hyclone, Logan, Utah, USA) and 1% antibiotics/antimycotics Gibco, Burlington, Ontario, Canada). The myoblasts were stored under conditions of 37° C. and 5% CO2. The myoblasts were grown on a 6-well culture plate for immunoblot analysis and measurement of diameters of myotubes. The myoblasts were maintained in each well for 5 days by replacing the medium with a differentiation medium (DMEM containing 2% horse serum and 1% antibiotics/antimycotics) at about 80% confluent state and induced to be differentiated into myotubes. The medium was replaced with a new medium every two days.
# (§2) The cells were obtained with a RIPA buffer, degraded by repeated suction through a 21 gauge needle, and the transferred to a 1.5 mL microtube. A sample was cultured on ice for 5 minutes and centrifuged at 13,000 rpm at 4° C. for 10 minutes. A supernatant was obtained with whole-cell soluble lysates and the protein concentration was determined through Bradford assay. To detect AMPK, phospho-AMPK (p-AMPK), FoxO1, p-FoxO1, FoxO3, p-FoxO3, Akt1, p-Akt1, S6K, p-S6K, MuRF1, MAFbx, HSP90, HSP72, HSP60, HSP27, αB-crystallin, and GAPDH, a total of 30 μg of proteins was electrophoresed on 8 to 10% SDS-PAGE.
# (§3) The proteins were electrophoretically transferred from the gel to a nitrocellulose membrane. The membrane reacted with a blocking buffer (1X TBS, 0.5% Tween-20 with 5% w/v nonfat dry milk) for 1 hour at room temperature and then washed with 10 mL TBST three times every 10 minutes. […] An immunocomplex was detected by the ECL system (GE Healthcare, Fairfield, Conn., USA) and the obtained bands were quantified by ImageJ 1.47t software (NIH, MD, USA). […]
# (§4) The cells on each 6-well plate were washed three times with 1× PBS and fixed with 4% paraformaldehyde for 30 minutes at room temperature. […] Fluorescent-labeled cells were detected with a Carl Zeiss LSM750 confocal microscope (Jena, Germany).
# [3] = test system: HSP60; experiment: Immunoblotting analysis of HSP60 in C2C12 myotubes; format: cell-based; conditions: T1AM-treated group vs control
# Procedure: as §1
# (§5) The cells were obtained with a RIPA buffer, degraded by repeated suction through a 21 gauge needle, and the transferred to a 1.5 mL microtube. A sample was cultured on ice for 5 minutes and centrifuged at 13,000 rpm at 4° C. for 10 minutes. A supernatant was obtained with whole-cell soluble lysates and the protein concentration was determined through Bradford assay. […]
# (§6) The proteins were electrophoretically transferred from the gel to a nitrocellulose membrane. […] An immunocomplex was detected by the ECL system (GE Healthcare, Fairfield, Conn., USA) and the obtained bands were quantified by ImageJ 1.47t software (NIH, MD, USA). […]
# [4] = test system: heat shock protein 72 (HSP72); experiment: Immunoblotting analysis of HSP72 in C2C12 myotubes; format: cell-based; conditions: T1AM-treated group vs control
# Procedure: as §1, §5, §6
# [5] = test system: αB-crystallin; experiment: Immunoblotting analysis of αB-crystallin in C2C12 myotubes; format: cell-based; conditions: T1AM-treated group vs control
# Procedure: as §1, §5, §6
# [6] = test system: S6K; experiment: Immunoblotting analysis of p-S6K and S6K in C2C12 myotubes; format: cell-based
# Procedure: as §1, §5, §6
# [7] = test system: FoxO1; experiment: Immunoblotting analysis of p-FoxO1 and FoxO1 in C2C12 myotubes; format: cell-based; conditions: T1AM-treated group vs control
# Procedure: as §1, §2, §3, §4
# [8] = test system: Akt1; experiment: Immunoblotting analysis of p-Akt1 and Akt1 in C2C12 myotubes; format: cell-based; conditions: T1AM-treated group vs control
# Procedure: as §1, §2
# as §3, with “minutes. Thereafter, the membranes reacted with a primary antibody diluted appropriately with 10 mL TBST (1:500 to 1:10,000) overnight at 4° C.” for “minutes.”
# [9] = test system: MuRF1; experiment: Immunoblotting analysis of MuRF1 in C2C12 myotubes; format: cell-based; conditions: T1AM-treated group vs control
# Procedure: as §1, §5, §6
# [10] = test system: AMPK; experiment: Immunoblotting analysis of p-AMPK and AMPK in C2C12 myotubes; format: cell-based; conditions: T1AM-treated group vs control
# Procedure: as §1, §2
# as §3, with “minutes. Thereafter, the membranes reacted with a primary antibody diluted appropriately with 10 mL TBST (1:500 to 1:10,000) overnight at 4° C.” for “minutes.”
# [11] = test system: MAFbx; experiment: Immunoblotting analysis of MAFbx in C2C12 myotubes; format: cell-based; conditions: T1AM treatment vs control
# Procedure: as §1, §5, §6
# [12] = test system: C2C12 myotubes; experiment: Measurement of diameter (size) of C2C12 myotubes; format: cell-based; conditions: 75 μM of T1AM for 6 hours
# Procedure: as §1
# To verify the effect of T1AM on the size of C2C12 myotubes, the cells were fixed with 4% paraformaldehyde and photographed at 200× magnification on an Axiovert 200 optical microscope. For analysis, the cells were divided into 9 fractions in order to randomly select the cells. The diameter of each myotube was measured using Image J software (NIH, Frederick, Md., USA).
# To determine whether T1AM induced muscular atrophy in C2C12 myotubes, cells were photographed under a phase contrast microscope (FIG. 1A) and the diameter was measured at 200× magnification (FIG. 1B).
structure (smiles),measurement,setting,value
"NCCc1ccc(Oc2ccc(O)cc2)c(I)c1 [T1AM, 3-iodothyronamine]","chymotrypsin-like activity of proteasome, higher than control",[1],1.5 times
same,"expression ratio of p-FoxO3/FoxO3, lower than control",[2],0.39 times
same,"p-FoxO3 level, lowered",[2],0.58 times
same,total expression of FoxO3 between T1AM-treated group and control,[2],not different
same,difference in HSP60 expression between the two groups,[3],not statistically significant
same,"expression level of HSP72, down-regulated compared to the control",[4],0.89 times
same,"expression level of αB-crystallin, down-regulated compared to the control",[5],0.63 times
same,p-S6K level,[6]; T1AM treatment vs control,lowered
same,"expression ratio of p-S6K/S6K, lower than control",[6]; T1AM-treated group vs control,0.53 times
same,"expression ratio of p-FoxO1/FoxO1, lowered",[7],0.66 times
same,phosphorylation level of FoxO1 between the two groups,[7],similar
same,"total expression of FoxO1, higher than control",[7],2.5 times
same,"expression ratio of p-Akt1/Akt1, lower than control",[8],0.45 times
same,non-phosphorylation level of Akt1 between the two groups,[8],similar
same,phosphorylation level of Akt1 compared to the control,[8],significantly down-regulated
same,"expression of MuRF1, higher than control",[9],1.8 times
same,"AMPK phosphorylation, increase compared to the control",[10],2.7 times
same,"expression ratio of p-AMPK/AMPK, higher than control",[10],2.0 times
same,"total expression levels of AMPK, between the two groups",[10],similar
same,expression of MAFbx,[11],not affected
same,"size of myotube, decrease compared to vehicle control",[12],0.13 times

# From US20200345662A1, “MUSCULAR ATROPHY-INDUCING AGENT USING HYPOMETABOLISM-INDUCING SUBSTANCE T1AM, AND USE THEREOF IN TREATING MUSCULAR HYPERTROPHY” (UNIVERSITY INDUSTRY FOUNDATION, YONSEI […] CAMPUS, priority 2015, published 2020)
